How the values were obtained:
Test in all cases: cells
Settings in all cases: Homo sapiens
COLO-829 = type: functional, cell-based
Description: SANGER: Inhibition of human COLO-829 cell growth in a cell viability assay.

D-263MG = type: functional, cell-based
Description: SANGER: Inhibition of human D-263MG cell growth in a cell viability assay.

DJM-1 = type: functional, cell-based;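 also: growth inhibition of human DJM-1 cells, read out by a cell viability assay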
Description: SANGER: Inhibition of human DJM-1 cell growth in a cell viability assay.

EKVX = type: functional, cell-based;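 also: growth inhibition of human EKVX cells, read out with a cell viability assay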
Description: SANGER: Inhibition of human EKVX cell growth in a cell viability assay.

ES7 = type: functional, cell-based;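 also: growth inhibition of cultured human ES7 cells, read out as cell viability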
Description: SANGER: Inhibition of human ES7 cell growth in a cell viability assay.

EW-18 = type: functional, cell-based;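 also: growth inhibition of EW-18 cells, read out by a cell viability assay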
Description: SANGER: Inhibition of human EW-18 cell growth in a cell viability assay.

GCIY = type: functional, cell-based;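 also: growth inhibition of the human GCIY cell line, read out by a cell viability assay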
Description: SANGER: Inhibition of human GCIY cell growth in a cell viability assay.

GOTO = type: functional, cell-based;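 also: growth inhibition of GOTO cells, read out by a cell viability assay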
Description: SANGER: Inhibition of human GOTO cell growth in a cell viability assay.

HAL-01 = type: functional, cell-based;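 also: growth inhibition of human HAL-01 cells, read out with a cell viability assay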
Description: SANGER: Inhibition of human HAL-01 cell growth in a cell viability assay.

HCE-4 = type: functional, cell-based;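 also: cell viability assay measuring inhibition of growth in the human HCE-4 cell line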
Description: SANGER: Inhibition of human HCE-4 cell growth in a cell viability assay.

HT = type: functional, cell-based
Description: SANGER: Inhibition of human HT cell growth in a cell viability assay.

IST-MEL1 = type: functional, cell-based;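 also: growth inhibition of the cell line, read out with a cell viability assay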
Description: SANGER: Inhibition of human IST-MEL1 cell growth in a cell viability assay.

IST-SL1 = type: functional, cell-based;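 also: growth inhibition of human IST-SL1 cells, read out with a cell viability assay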
Description: SANGER: Inhibition of human IST-SL1 cell growth in a cell viability assay.

JVM-3 = type: functional, cell-based;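 also: growth inhibition of human JVM-3 cells, read out with a cell viability assay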
Description: SANGER: Inhibition of human JVM-3 cell growth in a cell viability assay.

K562 = type: functional, cell-based
Description: SANGER: Inhibition of human K-562 cell growth in a cell viability assay.

KG-1 = type: functional, cell-based;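 also: growth inhibition of KG-1 cells, read out by a cell viability assay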
Description: SANGER: Inhibition of human KG-1 cell growth in a cell viability assay.

KLE = type: functional, cell-based;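 also: growth inhibition of human KLE cells, read out with a cell viability assay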
Description: SANGER: Inhibition of human KLE cell growth in a cell viability assay.

KM-H2 = type: functional, cell-based;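 also: growth inhibition of KM-H2 cells, read out by a cell viability assay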
Description: SANGER: Inhibition of human KM-H2 cell growth in a cell viability assay.

KP-N-YS = type: functional, cell-based;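 also: cell viability assay measuring inhibition of cell line growth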
Description: SANGER: Inhibition of human KP-N-YS cell growth in a cell viability assay.

KS-1 = type: functional, cell-based;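 also: growth inhibition of KS-1 cells, read out with a cell viability assay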
Description: SANGER: Inhibition of human KS-1 cell growth in a cell viability assay.

KU812 cell line = type: functional, cell-based;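 also: growth inhibition of KU812 cells, read out with a cell viability assay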
Description: SANGER: Inhibition of human KU812 cell growth in a cell viability assay.

LB771-HNC = type: functional, cell-based;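 also: growth inhibition of LB771-HNC human cells, read out with a cell viability assay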
Description: SANGER: Inhibition of human LB771-HNC cell growth in a cell viability assay.

LB831-BLC = type: functional, cell-based;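 also: growth inhibition of LB831-BLC cells, read out with a cell viability assay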
Description: SANGER: Inhibition of human LB831-BLC cell growth in a cell viability assay.

LS-411N = type: functional, cell-based
LXF-289 cell line = type: functional, cell-based
Description: SANGER: Inhibition of human LXF-289 cell growth in a cell viability assay.

MHH-NB-11 = type: functional, cell-based;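 also: growth inhibition of human MHH-NB-11 cells, read out by a cell viability assay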
Description: SANGER: Inhibition of human MHH-NB-11 cell growth in a cell viability assay.

MMAC-SF = type: functional, cell-based;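 also: growth inhibition of human MMAC-SF cells, read out with a cell viability assay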
Description: SANGER: Inhibition of human MMAC-SF cell growth in a cell viability assay.

MOLT-16 = type: functional, cell-based;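 also: growth inhibition of human MOLT-16 cells, read out with a cell viability assay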
Description: SANGER: Inhibition of human MOLT-16 cell growth in a cell viability assay.

MS-1 = type: functional, cell-based;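 also: growth inhibition of MS-1 cells, read out by cell viability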
Description: SANGER: Inhibition of human MS-1 cell growth in a cell viability assay.

MZ2-MEL = type: functional, cell-based;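 also: growth inhibition of MZ2-MEL cells read out with a cell viability assay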
Description: SANGER: Inhibition of human MZ2-MEL cell growth in a cell viability assay.

NB6 = type: functional, cell-based
Description: SANGER: Inhibition of human NB6 cell growth in a cell viability assay.

NB69 = type: functional, cell-based;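 also: growth inhibition of NB69 cells, determined by a cell viability assay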
Description: SANGER: Inhibition of human NB69 cell growth in a cell viability assay.

NCI-H1092 = type: functional, cell-based;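 also: cell growth inhibition measured with a cell viability assay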
Description: SANGER: Inhibition of human NCI-H1092 cell growth in a cell viability assay.

NCI-H1155 = type: functional, cell-based;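 also: cell growth inhibition measured by a viability assay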
Description: SANGER: Inhibition of human NCI-H1155 cell growth in a cell viability assay.

NCI-H1838 = type: functional, cell-based;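 also: growth inhibition of NCI-H1838 cells, determined with a cell viability readout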
Description: SANGER: Inhibition of human NCI-H1838 cell growth in a cell viability assay.

NCI-H209 = type: functional, cell-based;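 also: growth inhibition of human NCI-H209 cells, measured by a cell viability assay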
Description: SANGER: Inhibition of human NCI-H209 cell growth in a cell viability assay.

NCI-H2126 = type: functional, cell-based;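 also: growth inhibition of the cancer cell line, determined with a cell viability readout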
Description: SANGER: Inhibition of human NCI-H2126 cell growth in a cell viability assay.

NCI-H23 = type: functional, cell-based;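 also: cell viability assay measuring growth inhibition of NCI-H23 cells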
Description: SANGER: Inhibition of human NCI-H23 cell growth in a cell viability assay.

NCI-H510A = type: functional, cell-based;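 also: growth inhibition of NCI-H510A cells, read out with a cell viability assay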
Description: SANGER: Inhibition of human NCI-H510A cell growth in a cell viability assay.

NCI-H526 = type: functional, cell-based;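 also: growth inhibition of the human NCI-H526 cell line, measured by a cell viability assay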
Description: SANGER: Inhibition of human NCI-H526 cell growth in a cell viability assay.

NH-12 = type: functional, cell-based;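 also: growth inhibition of NH-12 cells, read out with a cell viability assay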
Description: SANGER: Inhibition of human NH-12 cell growth in a cell viability assay.

NKM-1 = type: functional, cell-based;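 also: growth inhibition of NKM-1 cells, read out with a cell viability assay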
Description: SANGER: Inhibition of human NKM-1 cell growth in a cell viability assay.

NOS-1 = type: functional, cell-based;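 also: growth inhibition of the human NOS-1 cell line, read out with a cell viability assay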
Description: SANGER: Inhibition of human NOS-1 cell growth in a cell viability assay.

P30-OHK = type: functional, cell-based;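 also: growth inhibition of the P30-OHK cell line, read out with a cell viability assay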
Description: SANGER: Inhibition of human P30-OHK cell growth in a cell viability assay.

PSN1 = type: functional, cell-based;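 also: suppression of growth of human PSN1 cells, read out by a cell viability assay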
Description: SANGER: Inhibition of human PSN1 cell growth in a cell viability assay.

RCC10RGB = type: functional, cell-based;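 also: growth inhibition of human RCC10RGB cells, read out by a cell viability assay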
Description: SANGER: Inhibition of human RCC10RGB cell growth in a cell viability assay.

RPMI-8226 = type: functional, cell-based
Description: SANGER: Inhibition of human RPMI-8226 cell growth in a cell viability assay.

Ramos-2G6-4C10 = type: functional, cell-based;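 also: growth inhibition of the cell line, measured by a cell viability read-out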
Description: SANGER: Inhibition of human Ramos-2G6-4C10 cell growth in a cell viability assay.

SCC-15 = type: functional, cell-based;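 also: growth inhibition of SCC-15 cells, read out with a cell viability assay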
Description: SANGER: Inhibition of human SCC-15 cell growth in a cell viability assay.

SCH = type: functional, cell-based;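 also: growth inhibition of human SCH cells, read out in a cell viability assay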
Description: SANGER: Inhibition of human SCH cell growth in a cell viability assay.

SH-4 = type: functional, cell-based;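 also: growth inhibition of SH-4 cells, read out with a cell viability assay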
Description: SANGER: Inhibition of human SH-4 cell growth in a cell viability assay.

SK-MEL-2 = type: functional, cell-based;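 also: growth inhibition of human SK-MEL-2 cells measured with a cell viability assay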
Description: SANGER: Inhibition of human SK-MEL-2 cell growth in a cell viability assay.

SK-NEP-1 = type: functional, cell-based;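 also: growth inhibition of human SK-NEP-1 cells, read out by a cell viability assay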
Description: SANGER: Inhibition of human SK-NEP-1 cell growth in a cell viability assay.

SW684 = type: functional, cell-based;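 also: growth inhibition of human SW684 cells, measured by a cell viability assay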
Description: SANGER: Inhibition of human SW684 cell growth in a cell viability assay.

SW872 = type: functional, cell-based;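 also: growth inhibition of SW872 cells, read out by a viability assay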
Description: SANGER: Inhibition of human SW872 cell growth in a cell viability assay.

SW982 = type: functional, cell-based;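 also: growth inhibition of SW982 cells, read out with a cell viability assay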
Description: SANGER: Inhibition of human SW982 cell growth in a cell viability assay.

TE-1 = type: functional, cell-based;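 also: growth inhibition of the human TE-1 cell line, read out with a cell viability assay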
Description: SANGER: Inhibition of human TE-1 cell growth in a cell viability assay.

697 = type: functional, cell-based
Description: SANGER: Inhibition of human 697 cell growth in a cell viability assay.

8-MG-BA = type: functional, cell-based;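 also: growth inhibition of 8-MG-BA cells, read out with a cell viability assay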
Description: SANGER: Inhibition of human 8-MG-BA cell growth in a cell viability assay.

ACN = type: functional, cell-based
Description: SANGER: Inhibition of human ACN cell growth in a cell viability assay.

BB65-RCC = type: functional, cell-based
Description: SANGER: Inhibition of human BB65-RCC cell growth in a cell viability assay.

BE-13 = type: functional, cell-based
Description: SANGER: Inhibition of human BE-13 cell growth in a cell viability assay.

BV-173 = type: functional, cell-based
Description: SANGER: Inhibition of human BV-173 cell growth in a cell viability assay.

TE-5 = type: functional, cell-based
Description: SANGER: Inhibition of human TE-5 cell growth in a cell viability assay.

U-87 MG = type: functional, cell-based, U-87MG ATCC
Description: SANGER: Inhibition of human U-87-MG cell growth in a cell viability assay.

COLO-684 = type: functional, cell-based
Description: SANGER: Inhibition of human COLO-684 cell growth in a cell viability assay.

SMILES: CCNc1cc(N[C@H]2CC[C@@H](O)CC2)nc(Nc2ccc3c(ccn3Cc3ccccc3)c2)n1
- IC50 (COLO-829): > 5.12 µM
- IC50 (D-263MG): > 5.12 µM
- IC50 (DJM-1): > 5.12 µM
- IC50 (EKVX): > 5.12 µM
- IC50 (ES7): > 5.12 µM
- IC50 (EW-18): > 5.12 µM
- IC50 (GCIY): > 5.12 µM
- IC50 (GOTO): > 5.12 µM
- IC50 (HAL-01): > 5.12 µM
- IC50 (HCE-4): > 5.12 µM
- IC50 (HT): > 5.12 µM
- IC50 (IST-MEL1): > 5.12 µM
- IC50 (IST-SL1): > 5.12 µM
- IC50 (JVM-3): > 5.12 µM
- IC50 (K562): > 5.12 µM
- IC50 (KG-1): > 5.12 µM
- IC50 (KLE): > 5.12 µM
- IC50 (KM-H2): > 5.12 µM
- IC50 (KP-N-YS): > 5.12 µM
- IC50 (KS-1): 4.3 µM
- IC50 (KU812 cell line): > 5.12 µM
- IC50 (LB771-HNC): > 5.12 µM
- IC50 (LB831-BLC): > 5.12 µM
- IC50 (LS-411N): > 5.12 µM
- IC50 (LXF-289 cell line): > 5.12 µM
- IC50 (MHH-NB-11): > 5.12 µM
- IC50 (MMAC-SF): > 5.12 µM
- IC50 (MOLT-16): > 5.12 µM
- IC50 (MS-1): > 5.12 µM
- IC50 (MZ2-MEL): > 5.12 µM
- IC50 (NB6): > 5.12 µM
- IC50 (NB69): > 5.12 µM
- IC50 (NCI-H1092): > 5.12 µM
- IC50 (NCI-H1155): > 5.12 µM
- IC50 (NCI-H1838): > 5.12 µM
- IC50 (NCI-H209): > 5.12 µM
- IC50 (NCI-H2126): > 5.12 µM
- IC50 (NCI-H23): > 5.12 µM
- IC50 (NCI-H510A): > 5.12 µM
- IC50 (NCI-H526): > 5.12 µM
- IC50 (NH-12): > 5.12 µM
- IC50 (NKM-1): > 5.12 µM
- IC50 (NOS-1): 3.26 µM
- IC50 (P30-OHK): > 5.12 µM
- IC50 (PSN1): > 5.12 µM
- IC50 (RCC10RGB): > 5.12 µM
- IC50 (RPMI-8226): > 5.12 µM
- IC50 (Ramos-2G6-4C10): > 5.12 µM
- IC50 (SCC-15): > 5.12 µM
- IC50 (SCH): > 5.12 µM
- IC50 (SH-4): 3.31 µM
- IC50 (SK-MEL-2): > 5.12 µM
- IC50 (SK-NEP-1): > 5.12 µM
- IC50 (SW684): > 5.12 µM
- IC50 (SW872): > 5.12 µM
- IC50 (SW982): > 5.12 µM
- IC50 (TE-1): > 5.12 µM
- IC50 697: 4.17 µM
- IC50 (8-MG-BA): > 5.12 µM
- IC50 (ACN): > 5.12 µM
- IC50 (BB65-RCC): > 5.12 µM
- IC50 (BE-13): > 5.12 µM
- IC50 (BV-173): > 5.12 µM
- IC50 (TE-5): > 5.12 µM
- IC50 (U-87 MG): > 5.12 µM
- IC50 (COLO-684): > 5.12 µM

SMILES: COc1cc(C)c(Sc2cnc(NC(=O)c3ccc(CNC(C)C(C)(C)C)cc3)s2)cc1C(=O)N1CCN(C(C)=O)CC1 (configuration not stated)
- IC50 (COLO-829): > 10.2 µM
- IC50 (D-263MG): > 10.2 µM
- IC50 (DJM-1): > 10.2 µM
- IC50 (EKVX): > 10.2 µM
- IC50 (ES7): > 10.2 µM
- IC50 (EW-18): > 10.2 µM
- IC50 (GCIY): > 10.2 µM
- IC50 (GOTO): > 10.2 µM
- IC50 (HAL-01): > 10.2 µM
- IC50 (HCE-4): > 10.2 µM
- IC50 (HT): > 10.2 µM
- IC50 (IST-MEL1): > 10.2 µM
- IC50 (IST-SL1): > 10.2 µM
- IC50 (JVM-3): > 10.2 µM
- IC50 (K562): > 10.2 µM
- IC50 (KG-1): > 10.2 µM
- IC50 (KLE): > 10.2 µM
- IC50 (KM-H2): > 10.2 µM
- IC50 (KP-N-YS): > 10.2 µM
- IC50 (KS-1): 1.21 µM
- IC50 (KU812 cell line): 8.97 µM
- IC50 (LB771-HNC): > 10.2 µM
- IC50 (LB831-BLC): 6.16 µM
- IC50 (LS-411N): 4.34 µM
- IC50 (LXF-289 cell line): 9.12 µM
- IC50 (MHH-NB-11): > 10.2 µM
- IC50 (MMAC-SF): > 10.2 µM
- IC50 (MOLT-16): 4.75 µM
- IC50 (MS-1): > 10.2 µM
- IC50 (MZ2-MEL): 6.62 µM
- IC50 (NB6): > 10.2 µM
- IC50 (NB69): 6.66 µM
- IC50 (NCI-H1092): > 10.2 µM
- IC50 (NCI-H1155): > 10.2 µM
- IC50 (NCI-H1838): > 10.2 µM
- IC50 (NCI-H209): > 10.2 µM
- IC50 (NCI-H2126): > 10.2 µM
- IC50 (NCI-H23): > 10.2 µM
- IC50 (NCI-H510A): > 10.2 µM
- IC50 (NCI-H526): > 10.2 µM
- IC50 (NH-12): > 10.2 µM
- IC50 (NKM-1): 10.1 µM
- IC50 (NOS-1): 1.3 µM
- IC50 (P30-OHK): > 10.2 µM
- IC50 (PSN1): 2.51 µM
- IC50 (RCC10RGB): > 10.2 µM
- IC50 (RPMI-8226): > 10.2 µM
- IC50 (Ramos-2G6-4C10): > 10.2 µM
- IC50 (SCC-15): > 10.2 µM
- IC50 (SCH): > 10.2 µM
- IC50 (SH-4): 2.49 µM
- IC50 (SK-MEL-2): > 10.2 µM
- IC50 (SK-NEP-1): > 10.2 µM
- IC50 (SW684): > 10.2 µM
- IC50 (SW872): > 10.2 µM
- IC50 (SW982): 2.91 µM
- IC50 (TE-1): > 10.2 µM
- IC50 697: 6.66 µM
- IC50 (8-MG-BA): > 10.2 µM
- IC50 (ACN): > 10.2 µM
- IC50 (BB65-RCC): > 10.2 µM
- IC50 (BE-13): > 10.2 µM
- IC50 (BV-173): > 10.2 µM
- IC50 (TE-5): > 10.2 µM
- IC50 (U-87 MG): > 10.2 µM
- IC50 (COLO-684): > 10.2 µM
